Measurements published in US20260327239A1, “COMPOUNDS FOR COVALENT INHIBITION OF SHP2” (Purdue Research Foundation, priority 2023, published 2026).
pIC50: −log10 of the molar value.

What was measured:
[1] = biological target: T1, SHP2 (Homo sapiens, UniProt Q06124); assay: Covalent adduct formation on SHP2 by intact protein LC-MS; type: binding; settings: 10 μM SHP2, 60 minutes
T1 construct: 4× solution of SHP2 (residues 224-528)
T1 sequence (Q06124 224-528): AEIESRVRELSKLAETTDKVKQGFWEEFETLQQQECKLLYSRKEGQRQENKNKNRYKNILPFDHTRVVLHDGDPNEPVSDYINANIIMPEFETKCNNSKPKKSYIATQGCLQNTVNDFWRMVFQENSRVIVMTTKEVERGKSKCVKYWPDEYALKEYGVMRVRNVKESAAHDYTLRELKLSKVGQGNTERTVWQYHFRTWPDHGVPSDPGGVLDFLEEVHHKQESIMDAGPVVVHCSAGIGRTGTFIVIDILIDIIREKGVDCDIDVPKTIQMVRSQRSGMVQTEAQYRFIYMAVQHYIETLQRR
Protocol: To validate covalent modification of SHP2 by the active compounds, adduct formation on SHP2 was measured by intact protein liquid chromatography-mass spectrometry (LC-MS). With intact protein LC-MS, multiply charged states of the protein species can be deconvoluted to achieve the total mass(es). Compounds were incubated with 10 μM SHP2 for 60 minutes before being quenched with acetonitrile for LC-MS analysis by electrospray ionization (ESI) in positive mode. […] (33), and (42) (FIGS. 3A and 3B).
To unfold protein and quench protein-ligand reactivity, 10 μL of treated or untreated 10 μM SHP2 was diluted in 40 μL of 80% (v/v) formic acid initially, followed by 150 μL of LC-MS buffer (50/50 water/acetonitrile with 0.1% formic acid). 20-25 pmol per sample was analyzed by LC/MS (Agilent 1260 Infinity II with a ZORBAX Rapid Resolution High Definition 300 Å Stable Bond C3, 2.1×100 mm, 1.8 μm column) attached to an Agilent 6129 quadrupole mass spectrometer in positive ion mode. The column was held at 45° C. Mobile solution A was 0.1% formic acid in water, and mobile phase B was 0.1% formic acid in acetonitrile. The gradient used was hold at 10% B for 5 min, increase linearly to 80% B for 15 min, and then hold at 80% B for 5 min. The mass data were collected at a range of 600-1500 m/z. Raw data were processed using MestReNova. For all samples, the deconvoluted mass was calculated by taking the m/z range of 730-1100 Da, and deconvoluted mass range from 36500-37200 Da. An abundance threshold of 10% and tolerance of 30 ppm was set for deconvolution. Unreacted SHP2's total deconvoluted mass was 36602±10 Da; for each deconvolution, the highest deconvoluted mass intensity was utilized as the mass pivot point to determine and identify reacted SHP2 adducts. To calculate the percent SHP2 reacted, the relative abundance intensity of reacted SHP2 was divided by the total relative abundance intensities of unreacted and reacted SHP2.

[2] = biological target: T2, PTP1B (Homo sapiens, UniProt P18031); assay: Time-dependent IC50 determination, PTP1B (10 min preincubation, pNPP); type: biochemical
T2 sequence (P18031 1-435): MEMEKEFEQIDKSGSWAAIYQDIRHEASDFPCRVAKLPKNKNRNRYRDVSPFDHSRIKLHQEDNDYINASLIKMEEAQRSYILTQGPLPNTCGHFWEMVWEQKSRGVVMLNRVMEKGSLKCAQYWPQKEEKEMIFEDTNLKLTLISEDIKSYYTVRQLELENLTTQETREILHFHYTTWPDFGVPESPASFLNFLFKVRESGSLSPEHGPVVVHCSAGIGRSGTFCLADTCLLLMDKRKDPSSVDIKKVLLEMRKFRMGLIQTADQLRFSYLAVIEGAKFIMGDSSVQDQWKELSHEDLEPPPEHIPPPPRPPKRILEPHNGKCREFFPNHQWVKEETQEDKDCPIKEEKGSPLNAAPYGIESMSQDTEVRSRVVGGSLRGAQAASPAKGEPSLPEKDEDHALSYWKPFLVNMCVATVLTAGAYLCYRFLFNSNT
Protocol: (§1) During active compound characterization, other common PTPs, including SHP1. PTP1B, and LYP, were counter-screened. Compounds were incubated for 10 minutes with the corresponding PTP (4 μM) before being diluted 50-fold into a solution containing excess substrate para-nitrophenyl phosphate (10 mM) to monitor the remaining activity. […] This was not expected, given their high sequence and structural homology. […] While unexpected, the lower sequence homology provides a rationale for the observed selectivity.
(§2) Inhibitors were evaluated for their ability to inhibit the reaction catalyzed by SHP2 using para-nitrophenyl phosphate (pNPP) as a substrate at pH 7 and 25° C. The reaction was started in a clear flat-bottom 96-well plate (Corning Costar Assay Plate #9017) by the addition of 25 μL of 4 μM PTP in DMG buffer to 25 μl of 2× inhibitor (final concentrations=2 μM PTP, 100-0 μM inhibitor). Reactions were incubated for 1 or 10 minutes before transferring 4 μL into 196 μL of 10.1 mM pNPP in DMG buffer (final concentration=40 nM PTP, 10 mM pNPP). These wells were then allowed to react for 10, 45, or 3 minutes for SHP1 and SHP2, LYP, PTP1B respectively before quenching with 50 μL of 5 M NaOH. Plates were then read for absorbance at 405 nm using a CLARIOstar^Plus plate reader (BMG Labetch). […]

[3] = biological target: T1, SHP2; assay: Time-dependent IC50 determination, SHP2 (10 min preincubation, pNPP); type: biochemical; settings: 10 mM pNPP, pH 7, 25° C, read-out: 10 Minute IC50
Protocol: as §1, §2

[4] = biological target: SHP1 (Homo sapiens, UniProt P29350); assay: Time-dependent IC50 determination, SHP1 (10 min preincubation, pNPP); type: biochemical
SHP1, sequence (P29350 whole entry): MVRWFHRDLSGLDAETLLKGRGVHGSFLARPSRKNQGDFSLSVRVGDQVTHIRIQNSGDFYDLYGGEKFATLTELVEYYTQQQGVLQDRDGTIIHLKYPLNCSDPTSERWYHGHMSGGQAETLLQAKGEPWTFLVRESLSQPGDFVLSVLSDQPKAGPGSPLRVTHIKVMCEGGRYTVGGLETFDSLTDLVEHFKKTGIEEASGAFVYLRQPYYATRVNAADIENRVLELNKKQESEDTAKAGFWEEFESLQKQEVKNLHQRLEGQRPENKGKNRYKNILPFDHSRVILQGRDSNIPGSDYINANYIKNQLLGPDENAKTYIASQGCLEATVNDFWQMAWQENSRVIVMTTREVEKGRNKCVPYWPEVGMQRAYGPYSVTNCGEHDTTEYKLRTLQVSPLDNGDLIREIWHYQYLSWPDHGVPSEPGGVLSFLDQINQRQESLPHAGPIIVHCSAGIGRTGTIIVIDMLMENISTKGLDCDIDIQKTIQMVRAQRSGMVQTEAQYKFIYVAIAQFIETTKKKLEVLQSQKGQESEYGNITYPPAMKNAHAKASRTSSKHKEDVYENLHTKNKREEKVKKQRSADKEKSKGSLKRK
Protocol: as §1, §2

Found Ligand Adduct (mass shift) ([1]; intact protein LC-MS): 461 Da | % SHP2 Reacted (overall adduct formation) ([1]; PVSN at 20 μM, compound 37 at 10 μM): 33% | pIC50 ([2]; PTP1B, 10 minutes preincubation, curve not completed (solubility), extrapolated, read-out: 10 Minute IC50): 3.17 | Fold-Selective (10 Minutes) ([2]; SHP2 over PTP1B): 44.56 | pIC50 [3]: 4.81 | pIC50 ([4]; SHP1, 10 minutes preincubation, curve not completed (solubility), extrapolated, read-out: 10 Minute IC50): 3.67 | Fold-Selective (10 Minutes) ([4]; SHP2 over SHP1): 13.75 fold
SMILES: C=C1C(=O)[C@@]2(C(=O)N3CCN(c4ccc(I)cc4)CC3)CC(=O)C[C@@H]1C2 [Compound 37]
